The values below come from patent US12533370B2, “Compositions and methods of potentiating antimicrobials” (priority 2016, dated 2026).

Assay [1] has as its system MRSA/VISA clinical strain No 111. Description: MIC and Fic index for gentamicin with and without CBD, Example 9. The assay is classed as cell-based, Staphylococcus aureus. Particulars: for MIC value: agent alone. Here is the method:
(§1) The term “minimal inhibitory concentration” or “MIC” as used herein relates to the minimal concentration of an agent, or a combination of agents, in which bacteria are substantially killed or at least not substantially grow. The cutoff value to determine the MIC in the experimental section was set to an optical density (OD) value of ≤0.1 after an overnight incubation of the bacteria together with the tested antibacterial agent(s).
(§2) Fractional Inhibitory Concentration values (FicA and FicB) and Fic index were calculated for each combination of compounds and clinical isolate using the following standard equations for this analysis: Fic index=FicA+FicB FicA=MIC of compound A (CBG) in combination/MIC of compound A alone. FicB=MIC of compound B (gentamicin) in combination/MIC of compound B alone.
(§3) Synergy is defined as a Fic index value of ≤0.5. Indifference or no interaction will be defined as a FIC index value of >0.5 and <4. Antagonism will be defined as a FIC index value of >4. When the FIC index value is within the range of 0.5-1, the combination is considered to be non-synergistic or additive.
The goal of the current experiment was to determine the minimal inhibitory concentration (MIC) for gentamicin with and without CBD on methicillin-resistant Staphylococcus aureus (MRSA) and […] Staphylococcus aureus (MRSA) (VISA) clinical strain No 111 from Souraski Medical Center, Tel Aviv, Israel. The cutoff value to determine the MIC was set to an optical density (OD) value of ≤0.1.
(§4) Fractional Inhibitory Concentration values (FicA and FicB) and Fic index were calculated for each combination of compounds and clinical isolate using the same calculation as in example 7.

Assay [2] has the same test system. Description: MIC and Fic index for gentamicin with and without CBG, Example 7. The note with it: for MIC value: agent alone, OD cutoff ≤0.1. Format: cell-based, Staphylococcus aureus. Here is the method: as §1
The goal of the current experiment was to determine the minimal inhibitory concentration (MIC) for gentamicin with and without CBG on methicillin-resistant Staphylococcus aureus (MRSA) and […] Staphylococcus aureus (MRSA) (VISA) clinical strain No 111 from Souraski Medical Center, Tel Aviv, Israel. The cutoff value to determine the MIC was set to an optical density (OD) value of ≤0.1.
as §2, §3

Assay [3] concerns methicillin-resistant Staphylococcus aureus (MRSA) violent clinical strain 760330509. Description: MIC and Fic index for gentamicin with and without CBG, Example 8. The assay is classed as cell-based. Particulars: for MIC value: agent alone. The method, then:
as §1, §2, §3
The goal of the current experiment was to determine the minimal inhibitory concentration (MIC) for gentamicin with and without CBG on methicillin-resistant Staphylococcus aureus (MRSA) violent clinical strain 760330509 from Souraski Medical Center, Tel Aviv, Israel. The cutoff value to determine the MIC was set to an optical density (OD) value of ≤0.1.
as §4

The test system of assay [4] is S. aureus ATCC strain 25923 (gentamicin-sensitive). Description: Minimal bactericidal concentration (MBC), Example 1. Format: cell-based, Staphylococcus aureus. Here is the method: The goal of the current experiment was to determine the minimal bactericidal concentrations (MBC) for THC with and without PEA on S. aureus ATCC strain 25923 (gentamicin-sensitive).
• 1. Incubation of the S. aureus (from a −80° C. stock) in 3 ml Muller Hinton (MH, Difco) medium at 37° C. under agitation of 250 rpm for 18-20 hours (this culture served as a starter for the experiment); • 2. Dilution of the starter culture using saline to obtain working cultures of 5*10^5 and 10^6 C.F.U/mL bacteria, respectively. • 3. Diluting the THC (0.125 mg/mL in saline) with or without PEA or gentamicin in a 96-well plate. • 4. Incubation of the plates at 37° C. under shaking (100 rpm) for 18-20 hours. • 5. In the following day, the bacteria in the wells suspended in saline were evaluated for their C.F.U/mL to determine the MBC.

Assay [5] shares this test system. Description: Minimal inhibitory concentration (MIC) for gentamicin with and without THC, Example 2. The assay is classed as cell-based, Staphylococcus aureus. Particulars: OD cutoff ≤0.1. The method, then:
(§5) In certain embodiments, the method of testing the anti-bacterial efficacy of a composition (or any test solution), comprises the following steps: (a) inoculation of bacteria (e.g. from a −80° C. stock) into 3 mL Muller Hinton (MH) medium; (b) incubation of the inoculated medium at 37° C. under agitation of 250 rpm for 18-20 hours, thus obtaining a starter culture; (c) diluting the starter culture using saline to obtain working cultures of 5*10^5 or 10^6 bacteria/mL; (d) combining the […] and the tested composition in a test container, e.g. a 96-well plate; (e) incubating the test container at 37° C. under shaking (100 rpm) for 18-20 hours; and (f) determining the viability of bacteria in the test container, thus determining the anti-bacterial efficacy of the composition, e.g. via determining the optical density (OD) of the bacterial culture. Routine calibrations and/or modifications of this method are well within the capabilities of any person of average skill in the art.
(§6) The term “minimal inhibitory concentration” or “MIC” as used herein relates to the minimal concentration of an agent, or a combination of agents, in which bacteria are substantially killed or at least not substantially grow. […]

Assay [6] has the same test system. In words: MIC for gentamicin with and without THC, Example 3. The assay is classed as cell-based, Staphylococcus aureus. The note with it: OD cutoff ≤0.1. Here is the method: as §5, §6
Assay [7] has as its system methicillin-resistant Staphylococcus aureus (MRSA). In words: MIC for gentamicin with and without THC on MRSA, Example 4. Format: cell-based. The method, then:
as §5, §6

Assay [8] shares this test system. In words: MIC for ampicillin with and without THC on MRSA, Example 5. The assay is classed as cell-based. The note with it: read-out: MIC value. Here is the method: as §5, §6
The subject of a further assay is Streptococcus pneumoniae. Description: MIC for carbenicillin with and without THC, Example 6. Format: cell-based. Particulars: agent alone, OD cutoff ≤0.1. The method, then:
as §5, §6

In assay [9] the test system is established S. aureus ATCC strain 25923 (gentamicin-sensitive) biofilm. Description: MIC for gentamicin with and without THC on established biofilm, Example 10. Format: cell-based, Staphylococcus aureus. Particulars: agent alone; OD cutoff ≤0.1. Here is the method: as §1
The goal of the current experiment was to determine the minimal inhibitory concentration (MIC) for gentamicin with and without THC on an established S. aureus ATCC strain 25923 (gentamicin-sensitive) biofilm. The cutoff value to determine the MIC was set to an optical density (OD) value of ≤0.1.

Setting [10] is: Staphylococcus aureus, read-out: MIC value.
Setting [11] is: Staphylococcus aureus, ATCC25923, agent alone.

Values after ≈ are worked out from the molar mass of the structure shown.

In the case of `C=C(C)[C@@H]1CCC(C)=C[C@H]1c1c(O)cc(CCCCC)cc1O` [CBD, cannabidiol], in assay [1] (32 μg/mL Gen.+1 μg/mL CBD), the “FicA value (MIC of CBD in combination/MIC alone)” value is given as 0.125. For the same molecule, in assay [1] (Staphylococcus aureus, read-out: MIC value, agent alone, MRSA/VISA strain No 111, OD cutoff ≤0.1), the MIC is approximately 8 µg/mL.
Take `CCCCCc1cc(O)c(C/C=C(\C)CCC=C(C)C)c(O)c1` [CBG, cannabigerol]: the “FicA value (MIC of CBG in combination/MIC alone)” value in assay [2] (64 μg/mL Gen.+1 μg/mL CBG) and in assay [3] (32 μg/mL Gen.+1 μg/mL CBG) was 0.125 in each case. Also, in assay [2] (MRSA/VISA strain No 111), the “MIC value for CBG alone” value is “about 8 n g/mL”. Besides, the MIC in [2] (setting [10]) was 8 µg/mL; in assay [3] (Staphylococcus aureus, MRSA, read-out: MIC value, agent alone, MRSA strain 760330509, OD cutoff ≤0.1), approximately 8 µg/mL.
Take `CCCCCc1cc(O)c2c(c1)OC(C)(C)[C@@H]1CCC(C)=C[C@@H]21` [THC, tetrahydrocannabinol]: the minimal bactericidal concentration (MBC) in assay [4] (Staphylococcus aureus, ATCC25923, agent alone, S. aureus ATCC 25923) was approximately 7.8 µg/mL (≈ 24.8 µM). Moreover, in [4] (THC alone vs gentamicin alone), the “fold decrease of MBC compared to gentamicin alone” value turned out to be 32 fold. The minimum inhibitory concentration (MIC) in assay [5] (setting [11]) is approximately 1 µg/mL; in assay [6] (setting [11]), approximately 2 µg/mL; in [7] (setting [10]) it was approximately 2 µg/mL; in [8], approximately 2 µg/mL; in the assay on Streptococcus pneumoniae, approximately 2 µg/mL. In addition, the “MIC value on established biofilm” value in [9] is “about 0.004 mg/mL”.
Turning to `CC1(C)S[C@@H]2[C@H](NC(=O)[C@H](N)c3ccccc3)C(=O)N2[C@H]1C(=O)O` [ampicillin], the minimum inhibitory concentration (MIC) in assay [8] is approximately 500 µg/mL.
Take `CC1(C)S[C@@H]2[C@H](NC(=O)C(C(=O)O)c3ccccc3)C(=O)N2[C@H]1C(=O)O` (stereo partly shown) [carbenicillin]: the minimal inhibitory concentration (MIC) in the assay on Streptococcus pneumoniae is approximately 0.2 µg/mL.
The molecule gentamicin had an MBC value in assay [4] (agent alone, S. aureus ATCC 25923) of 250 µg/mL. For the same molecule, the MIC value result in [5] (agent alone) was “about 0.001 mg/mL”; in [6] (agent alone), “about 0.002 mg/mL”; in assay [7] (agent alone, OD cutoff ≤0.1) it was “about 0.125 mg/mL”; in [2] (MRSA/VISA strain No 111), “about 256 μg/mL”; in assay [2] (MRSA/VISA strain No 111, listed as Gen.), 256 µg/mL; in assay [3] (MRSA strain 760330509, OD cutoff ≤0.1) it was “about 128 μg/mL”. In addition, the MIC value was 128 µg/mL in assay [3] (MRSA strain 760330509, OD cutoff ≤0.1, listed as Gen.); “about 256 μg/mL” in [1] (MRSA/VISA strain No 111, OD cutoff ≤0.1); 256 µg/mL in [1] (MRSA/VISA strain No 111, OD cutoff ≤0.1, listed as Gen.). Also, the results for the “FicB value (MIC of gentamicin in combination/MIC alone)” value in [2] (64 μg/mL Gen.+1 μg/mL CBG), in assay [3] (32 μg/mL Gen.+1 μg/mL CBG) and in assay [1] (32 μg/mL Gen.+1 μg/mL CBD) were 0.25, 0.25 and 0.125, respectively. For the same molecule, in [9], the “MIC value on established biofilm” value is on record as “over 0.002 mg/mL”.
